# Data: patent US20040204443A1, “Method for inducing pain relief using imidazo[1,2-a]pyridine derivatives” (priority 2003, published 2004)
# Assays:
# [1] = test system: intense, bilateral pain in both feet; assay: Case report: patient with bilateral foot pain, oral drug treatment; type: in vivo, human patient; conditions: for decrease in pain: foot pain from stretched plantar fascia, earlier drug treatments
# Description: Additionally, the patient was treated with topical lidocaine and with a tens machine.
# [2] = test system: intense, bilateral pain in both feet; assay: Case report: same foot-pain patient, topical application in a cream; type: in vivo, human patient; conditions: applied topically in a cream
# [3] = test system: pain in patient with metastatic cancer; assay: Case report: second patient with metastatic cancer pain; type: in vivo, human patient
# Excerpt: A second patient with metastatic cancer was also experiencing pain and had reported little or no relief from common analgesics.
# [4] = has been reported; cited from earlier work
# [5] = may be eliminated more slowly in obese individuals; cited from earlier work
smiles,measurement,setting,value
"Cc1ccc(-c2nc3ccc(C)cn3c2CC(=O)N(C)C)cc1 [AMBIEN, N,N,6-trimethyl-2-p-tolyl-imidazo[1,2-a]pyridine-3-acetamide]",duration of pain abatement,"[1]; obese person, 10 mg H.S.",12 to 14 h
same,"other foot pains (arch, heel, cuboid area)",[1]; person,ameliorated
same,effective dosage,"[1]; person, 10 mg H.S.",about 0.08 mg per kg
same,abatement of pain,"[1]; person, 10 mg H.S., able to walk prior to retiring",noticeable abatement of pain
same,pain relief after topical application,[2],reported pain relief
same,analgesic effect,[3],marked analgesic effect
same,time in which metabolized,[4],6 to 8 h
same,lipophilicity,[5],lipophilic
"CN(C)CCC=C1c2ccccc2CCc2ccccc21 [Elavil, amitryptiline]",decrease in pain,[1]; person,only the latter showing any decrease in pain
Nc1nnc(-c2cccc(Cl)c2Cl)c(N)n1 [Lamictal],decrease in pain,[1]; person,only the latter showing any decrease in pain
NCC1(CC(=O)O)CCCCC1 [Neurontin],decrease in pain,[1]; person,only the latter showing any decrease in pain
"CNCCC=C1c2ccccc2CCc2ccccc21 [Parmelar, nortryptiline]",decrease in pain,[1]; person,only the latter showing any decrease in pain
CC1(C)O[C@@H]2[C@@H](CO[C@@]3(COS(N)(=O)=O)OC(C)(C)O[C@@H]23)O1 [Topamax],decrease in pain,[1]; person,only the latter showing any decrease in pain
COc1cccc(C2(O)CCCCC2CN(C)C)c1 (centres unmarked) [Ultram],decrease in pain,[1]; person,only the latter showing any decrease in pain
